According to ChEMBL document CHEMBL4118121, “Anticomplement compounds from Polygonum chinense” (Bioorg Med Chem Lett, 2018):
Values after ≈ are worked out from the molar mass of the structure shown. Active and inactive are the calls of the source. No cut-off for these calls is given here.

How the values were obtained:
Erythrocyte [1] = experiment: Anticomplement activity in sheep erythrocytes assessed as concentration required for 50% hemolytic inhibition by classic pathway pretreated for 10 mins with guinea pig serum followed by erythrocyte addition measured after 30 mins by spectrophotometeric method; type: functional, cell-based; details: Ovis aries
Erythrocyte [2] = experiment: Anticomplement activity in rabbit erythrocytes assessed as concentration required for 50% hemolytic inhibition by alternative pathway pretreated for 10 mins with normal human serum followed by erythrocyte addition measured after 30 mins by spectrophotometeric method; type: functional, cell-based; details: Oryctolagus cuniculus
Erythrocyte [3] = experiment: Anticomplement activity in sheep erythrocytes assessed as inhibition of hemolysis by classical pathway after 30 mins of compound treatment in normal human serum with C1q-depleted sera; type: functional, cell-based; details: Ovis aries
Erythrocyte [4] = experiment: Anticomplement activity in sheep erythrocytes assessed as inhibition of complete hemolysis by classical pathway after 30 mins of compound treatment in normal human serum; type: functional; details: Ovis aries, 0.5 h
Erythrocyte [5] = experiment: Anticomplement activity in sheep erythrocytes assessed as inhibition of hemolysis by classical pathway after 30 mins of compound treatment in normal human serum with C5-depleted sera; type: functional, cell-based; details: Ovis aries
Erythrocyte [6] = experiment: Anticomplement activity in sheep erythrocytes assessed as inhibition of hemolysis by classical pathway after 30 mins of compound treatment in normal human serum with C3-depleted sera; type: functional, cell-based; details: Ovis aries
Erythrocyte [7] = experiment: Anticomplement activity in sheep erythrocytes assessed as inhibition of hemolysis by classical pathway after 30 mins of compound treatment in normal human serum with C9-depleted sera; type: functional, cell-based; details: Ovis aries
Erythrocyte [8] = experiment: Anticomplement activity in sheep erythrocytes assessed as inhibition of hemolysis by classical pathway after 30 mins of compound treatment in normal human serum with C2-depleted sera; type: functional, cell-based; details: Ovis aries
Erythrocyte [9] = experiment: Anticomplement activity in sheep erythrocytes assessed as inhibition of hemolysis by classical pathway after 30 mins of compound treatment in normal human serum with C4-depleted sera; type: functional, cell-based; details: Ovis aries
Erythrocyte [10] = experiment: Anticomplement activity in sheep erythrocytes assessed as inhibition of hemolysis by classical pathway by measuring hemolysis after 30 mins of compound treatment in normal human serum with C4-depleted sera relative to control; type: functional, Ovis aries
Erythrocyte [11] = experiment: Anticomplement activity in sheep erythrocytes assessed as inhibition of hemolysis by classical pathway by measuring hemolysis after 30 mins of compound treatment in normal human serum with C5-depleted sera relative to control; type: functional, Ovis aries
Erythrocyte [12] = experiment: Anticomplement activity in sheep erythrocytes assessed as inhibition of hemolysis by classical pathway by measuring hemolysis after 30 mins of compound treatment in normal human serum with C9-depleted sera relative to control; type: functional, Ovis aries
Erythrocyte [13] = experiment: Anticomplement activity in sheep erythrocytes assessed as inhibition of hemolysis by classical pathway by measuring hemolysis after 30 mins of compound treatment in normal human serum with C3-depleted sera relative to control; type: functional, Ovis aries

Work on `CC1(C)OC[C@H]([C@@H]2OC(=O)[C@]3(O)[C@@H]2OC(=O)C[C@H]3c2ccc(O)cc2)O1` yielded an IC50 (Erythrocyte [1]) of 920 µM and an IC50 (Erythrocyte [2]) of 1170 µM.
With `COc1c(O)cc2c(=O)oc3c(O)c(O[C@@H]4O[C@@H](C)[C@H](O)[C@@H](O)[C@H]4O)cc4c(=O)oc1c2c34` the inhibition (Erythrocyte [3]) was “Active”, the IC50 (Erythrocyte [1]) was 180 µM and the MIC (Erythrocyte [4]) was 340 µM (≈ 157 µg/mL). The inhibition (Erythrocyte [5]) was “Active”, the inhibition (Erythrocyte [6]) was “Active” and the IC50 (Erythrocyte [2]) was 260 µM.
`COc1cc([C@@H]2OC(=O)[C@@H]3[C@H]2CO[C@H]3c2ccc(O)c(OC)c2)ccc1O` was tested, and the IC50 (Erythrocyte [1]) was 880 µM and the IC50 (Erythrocyte [2]) was 1160 µM.
With `O=C1CCc2c1oc(=O)c1cc(O)c(O)c(O)c21` the IC50 (Erythrocyte [1]) was 1250 µM and the IC50 (Erythrocyte [2]) was 1560 µM.
Work on `CCOC(=O)[C@@H](CC(=O)OC)[C@H]1c2c(cc(O)c(O)c2O)C(=O)O[C@@H]1C(=O)OCC` yielded an IC50 (Erythrocyte [1]) of 1250 µM and an IC50 (Erythrocyte [2]) of 1530 µM.
With `COc1cc(/C=C/C(=O)OCCc2ccc(O)cc2)ccc1O` the IC50 (Erythrocyte [1]) was 660 µM and the IC50 (Erythrocyte [2]) was 1010 µM.
With `CCOC(=O)[C@H]1OC(=O)c2cc(O)c(O)c(O)c2[C@@H]1[C@H](CC(=O)O)C(=O)O` the inhibition (Erythrocyte [3]) was “inactive”, the inhibition (Erythrocyte [7]) was “inactive” and the IC50 (Erythrocyte [1]) was 460 µM. For the same compound, the MIC (Erythrocyte [4]) was 840 µM (≈ 323 µg/mL), the inhibition (Erythrocyte [5]) was “Active” and the inhibition (Erythrocyte [8]) was “inactive”. For the same compound, the inhibition (Erythrocyte [6]) was “Active”, the inhibition (Erythrocyte [9]) was “Active” and the IC50 (Erythrocyte [2]) was 550 µM.
With `O=C(O)/C=C/c1ccc(O)c(O)c1` [CAFFEIC ACID] the IC50 (Erythrocyte [1]) was 750 µM and the IC50 (Erythrocyte [2]) was 940 µM.
In the case of `O=c1oc2c(O)c(O)cc3c(=O)oc4c(O)c(O)cc1c4c23` [ELLAGIC ACID], the IC50 (Erythrocyte [1]) is reported as 320 µM and the IC50 (Erythrocyte [2]) is reported as 320 µM.
`COc1c(O)cc2c(=O)oc3c(O)c(O)cc4c(=O)oc1c2c34` gave an IC50 (Erythrocyte [1]) of 580 µM and an IC50 (Erythrocyte [2]) of 670 µM.
In the case of `COC(=O)C1CC(=O)c2oc(=O)c3cc(O)c(O)c(O)c3c21` (configuration not stated) [METHYLBREVIFOLIN CARBOXYLATE], the IC50 (Erythrocyte [1]) is reported as 1040 µM and the IC50 (Erythrocyte [2]) is reported as 1260 µM.
Work on `CCOC(=O)[C@@H](CC(=O)O)[C@H]1c2c(cc(O)c(O)c2O)C(=O)O[C@@H]1C(=O)OCC` yielded an IC50 (Erythrocyte [1]) of 770 µM and an IC50 (Erythrocyte [2]) of 870 µM.
With `CC(=O)N[C@H]1[C@@H](O[C@H]2[C@H](O)[C@@H](O)[C@H](O[C@H]3[C@H](OS(=O)(=O)O)[C@@H](OS(=O)(=O)O)[C@@H](O[C@H]4[C@H](O)[C@@H](OS(=O)(=O)O)C(O)O[C@H]4C(=O)O)O[C@@H]3CO)O[C@@H]2C(=O)O)O[C@H](COS(=O)(=O)O)[C@@H](O)[C@@H]1O` (some centres not stated) the IC50 (Erythrocyte [1]) was 93 µg/mL and the IC50 (Erythrocyte [2]) was 135 µg/mL.
`COc1cc(/C=C(/C(=O)NCCc2ccc(O)cc2)c2cc(OC)c(O)c(OC)c2)ccc1O` showed an IC50 (Erythrocyte [1]) of 1340 µM and an IC50 (Erythrocyte [2]) of 2800 µM.
With `CCOC(=O)c1cc(O)c(O)c(O)c1` [ETHYLGALLATE] the IC50 (Erythrocyte [1]) was 1000 µM and the IC50 (Erythrocyte [2]) was 1240 µM.
With `COc1cc([C@H]2c3cc(O)c(OC)cc3/C(=C/C(=O)NCCc3ccc(O)cc3)[C@H]2C(=O)NCCc2ccc(O)cc2)ccc1O` the IC50 (Erythrocyte [1]) was 390 µM, the MIC (Erythrocyte [4]) was 820 µM (≈ 512 µg/mL) and the inhibition (Erythrocyte [6]) was “Active”. The inhibition (Erythrocyte [9]) was “Active” and the IC50 (Erythrocyte [2]) was 420 µM.
For `Cc1ccc(C(=O)Nc2ccc(S(=O)(=O)O)c3cc(S(=O)(=O)O)cc(S(=O)(=O)O)c23)cc1NC(=O)c1cccc(NC(=O)Nc2cccc(C(=O)Nc3cc(C(=O)Nc4ccc(S(=O)(=O)O)c5cc(S(=O)(=O)O)cc(S(=O)(=O)O)c45)ccc3C)c2)c1` [SURAMIN], the IC50 (Erythrocyte [1]) was 120 µM and the IC50 (Erythrocyte [2]) was 180 µM.
`COc1c(O)cc2c(=O)oc3c(OC)c(O[C@@H]4OC[C@@H](O)[C@H](O)[C@H]4O)cc4c(=O)oc1c2c34` showed an IC50 (Erythrocyte [1]) of 230 µM and an IC50 (Erythrocyte [2]) of 290 µM.
`COc1cc([C@@H](O)[C@@H]2C(=O)NCCc3ccc(cc3)Oc3ccc(cc3)CCNC(=O)/C=C/c3cc(OC)c(O)c2c3)ccc1O` was tested, and the IC50 (Erythrocyte [1]) was 520 µM and the IC50 (Erythrocyte [2]) was 720 µM.
With `COc1cc(/C=C/C(=O)NCCc2ccc(O)cc2)ccc1O` [N-TRANS-FERULOYL TYRAMINE] the IC50 (Erythrocyte [1]) was 880 µM and the IC50 (Erythrocyte [2]) was 1330 µM.
`COC(=O)c1cc(O)c(O)c(O)c1` [GALLIC ACID METHYL ESTER] was tested, and the IC50 (Erythrocyte [1]) was 840 µM and the IC50 (Erythrocyte [2]) was 1070 µM.
`COc1cc2c(=O)oc3c(O)c(OC)cc4c(=O)oc(c1O)c2c34` showed an IC50 (Erythrocyte [1]) of 1100 µM and an IC50 (Erythrocyte [2]) of 1310 µM.
Work on `CCOC(=O)[C@H]1OC(=O)c2cc(O)c(O)c(O)c2[C@@H]1CC(=O)OC` yielded an IC50 (Erythrocyte [1]) of 1450 µM and an IC50 (Erythrocyte [2]) of 1840 µM.
`O=C(O)c1cc(O)c(O)c(O)c1` [GALLIC ACID] showed an IC50 (Erythrocyte [1]) of 590 µM and an IC50 (Erythrocyte [2]) of 740 µM.
`O=C(O)C[C@H](C(=O)O)[C@H]1c2c(cc(O)c(O)c2O)C(=O)O[C@@H]1C(=O)O` was tested, and the IC50 (Erythrocyte [1]) was 620 µM and the IC50 (Erythrocyte [2]) was 730 µM.
`COc1c(O)cc2c(=O)oc3c(OC)c(O)cc4c(=O)oc1c2c34` gave an IC50 (Erythrocyte [1]) of 870 µM and an IC50 (Erythrocyte [2]) of 1070 µM.
`O=C1C[C@@H](c2ccc(O)cc2)[C@]2(O)C(=O)O[C@@H]([C@H](O)CO)[C@H]2O1` was tested, and the inhibition (Erythrocyte [3]) was “inactive”, the IC50 (Erythrocyte [1]) was 730 µM and the MIC (Erythrocyte [4]) was 1760 µM (≈ 571 µg/mL). For the same compound, the “inhibition (INH)” value (Erythrocyte [10]) was <10.6%, the “inhibition (INH)” value (Erythrocyte [11]) was <10.6% and the “inhibition (INH)” value (Erythrocyte [12]) was <10.6%. For the same compound, the inhibition (Erythrocyte [8]) was “inactive”, the “inhibition (INH)” value (Erythrocyte [13]) was <10.6% and the IC50 (Erythrocyte [2]) was 990 µM.
With `CCOC(=O)C1CC(=O)c2oc(=O)c3cc(O)c(O)c(O)c3c21` (configuration not stated) [ETHYLBREVIFOLIN CARBOXYLATE] the IC50 (Erythrocyte [1]) was 1080 µM and the IC50 (Erythrocyte [2]) was 1360 µM.
